Measurements: patent publication US9932340B2, “Substituted indoles” (AbbVie Inc., priority 2014, dated 2018)

Each compound was assayed against SUV420H1 enzyme (Homo sapiens, UniProt Q4FZB7) (assay: TR-FRET SAH SUV420H1 enzyme inhibition assay). Details: Histone Peptide H4(8-30)me1 and SAM, overnight at room temp, TR-FRET detection of SAH, read-out: TR-FRET SAH_SUV420H1 IC50.
Assay type: biochemical
Summary of the method: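 SUV420H1 (90 nM) preincubated 30 min with compound (3-fold dilutions, 50 to 0.00075 μM), then H4(8-30)me1 peptide 5 nM and SAM 4 nM added, overnight at room temp. SAH product detected by TR-FRET with Tb anti-SAH antibody and Oregon Green-SAH in RIPA buffer, 4 h; IC50 from Hill fit, asymptotes fixed 0-100%.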

Sequence of SUV420H1 enzyme (Q4FZB7 whole entry): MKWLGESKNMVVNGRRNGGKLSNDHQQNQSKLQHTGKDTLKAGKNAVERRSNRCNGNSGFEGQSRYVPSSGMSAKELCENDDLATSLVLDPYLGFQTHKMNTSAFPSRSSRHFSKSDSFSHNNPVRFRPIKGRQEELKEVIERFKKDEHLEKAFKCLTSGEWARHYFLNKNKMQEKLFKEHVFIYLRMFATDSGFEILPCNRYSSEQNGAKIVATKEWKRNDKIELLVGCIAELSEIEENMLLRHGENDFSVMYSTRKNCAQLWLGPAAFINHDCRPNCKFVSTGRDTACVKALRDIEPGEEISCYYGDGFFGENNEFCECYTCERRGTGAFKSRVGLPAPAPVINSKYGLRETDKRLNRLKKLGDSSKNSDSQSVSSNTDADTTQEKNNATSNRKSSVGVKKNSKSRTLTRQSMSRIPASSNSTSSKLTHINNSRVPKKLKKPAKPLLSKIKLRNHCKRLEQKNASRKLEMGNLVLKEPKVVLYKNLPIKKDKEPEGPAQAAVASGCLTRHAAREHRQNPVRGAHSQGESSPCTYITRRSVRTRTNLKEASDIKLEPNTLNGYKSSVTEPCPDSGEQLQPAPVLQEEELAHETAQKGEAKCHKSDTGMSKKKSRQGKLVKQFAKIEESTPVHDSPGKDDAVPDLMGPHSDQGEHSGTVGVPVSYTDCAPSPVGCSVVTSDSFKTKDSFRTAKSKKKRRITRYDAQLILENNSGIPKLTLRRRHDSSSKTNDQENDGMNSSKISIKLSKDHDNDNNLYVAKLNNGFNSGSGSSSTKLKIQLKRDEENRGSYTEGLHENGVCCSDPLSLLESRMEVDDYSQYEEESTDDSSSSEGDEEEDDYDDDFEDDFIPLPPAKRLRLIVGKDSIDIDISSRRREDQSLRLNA

Compared with `N#Cc1ccc(C(=O)NCc2cc3cc(C4=CCNCC4)cc(Cn4cnc5c(N)ncnc54)c3[nH]2)c(F)c1` [Example 286, N-({7-[(6-amino-9H-purin-9-yl)methyl]-5-(1,2,3,6-tetrahydropyridin-4-yl)-1H-indol-2-yl}methyl)-4-cyano-2-fluorobenzamide], `Cn1nnc2cc(C(=O)NCc3cc4cc(Cl)cc(Cn5cnc6c(N)ncnc65)c4[nH]3)ccc21` [Example 352, N-({7-[(6-amino-9H-purin-9-yl)methyl]-5-chloro-1H-indol-2-yl}methyl)-1-methyl-1H-benzotriazole-5-carboxamide] is 31-fold higher in IC50: 41.1 nM for the first, 1280 nM for the second.

Going from `COc1ccsc1C(=O)NCc1cc2cc(Cl)cc(Cn3cnc4c(N)ncnc43)c2[nH]1` [Example 159, N-({7-[(6-amino-9H-purin-9-yl)methyl]-5-chloro-1H-indol-2-yl}methyl)-3-methoxythiophene-2-carboxamide] to `Cc1cc2cc(C(=O)NCc3cc4cc(Cl)cc(Cn5cnc6c(N)ncnc65)c4[nH]3)ccc2o1` [Example 364, N-({7-[(6-amino-9H-purin-9-yl)methyl]-5-chloro-1H-indol-2-yl}methyl)-2-methyl-1-benzofuran-5-carboxamide], the IC50 falls from > 50000 nM to 3280 nM. The second is the more potent here.

Going from `CCc1oncc1C(=O)NCc1cc2cc(Cl)cc(Cn3cnc4c(N)ncnc43)c2[nH]1` [Example 181, N-({7-[(6-amino-9H-purin-9-yl)methyl]-5-chloro-1H-indol-2-yl}methyl)-5-ethyl-1,2-oxazole-4-carboxamide] to `Cc1nc2cc(C(=O)NCc3cc4cc(Cl)cc(Cn5cnc6c(N)ncnc65)c4[nH]3)ccc2[nH]1` [Example 363, N-({7-[(6-amino-9H-purin-9-yl)methyl]-5-chloro-1H-indol-2-yl}methyl)-2-methyl-1H-benzimidazole-5-carboxamide], the IC50 rises from 2860 nM to 4300 nM (1.5-fold). The first is the more potent here.

Compared with `Nc1ncnc2c1ncn2Cc1cc(Cl)cc2cc(CNC(=O)c3ccc4sccc4c3)[nH]c12` [Example 354, N-({7-[(6-amino-9H-purin-9-yl)methyl]-5-chloro-1H-indol-2-yl}methyl)-1-benzothiophene-5-carboxamide], `NCc1cc2cc(-c3ccc(S(N)(=O)=O)cc3)cc(Cn3cnc4c(N)ncnc43)c2[nH]1` [Example 29, 4-{2-(aminomethyl)-7-[(6-amino-9H-purin-9-yl)methyl]-1H-indol-5-yl}benzenesulfonamide] is 24-fold lower in IC50: 5960 nM for the first, 252 nM for the second. The second is the more potent here.

Compared with `Cc1noc(C)c1C(=O)NCc1cc2cc(-c3cccc(C(=O)N(C)C)c3)cc(Cn3cnc4c(N)ncnc43)c2[nH]1` [Example 177, N-({7-[(6-amino-9H-purin-9-yl)methyl]-5-[3-(dimethylcarbamoyl)phenyl]-1H-indol-2-yl}methyl)-3,5-dimethyl-1,2-oxazole-4-carboxamide], `Nc1ncnc2c1ncn2Cc1cc(Cl)cc2cc(CNC(=O)c3cnoc3C3CC3)[nH]c12` [Example 189, N-({7-[(6-amino-9H-purin-9-yl)methyl]-5-chloro-1H-indol-2-yl}methyl)-5-cyclopropyl-1,2-oxazole-4-carboxamide] is 32-fold higher in IC50: 106 nM for the first, 3360 nM for the second.

`Cc1ccccc1CNCc1cc2cc(Cl)cc(Cn3cnc4c(N)ncnc43)c2[nH]1` [Example 242, 9-[(5-chloro-2-{[(2-methylbenzyl)amino]methyl}-1H-indol-7-yl)methyl]-9H-purin-6-amine] and `Nc1ncnc2c1ncn2Cc1cc(Cl)cc2cc(CNC(=O)c3ccsc3)[nH]c12` [Example 145, N-({7-[(6-amino-9H-purin-9-yl)methyl]-5-chloro-1H-indol-2-yl}methyl)thiophene-3-carboxamide] are within 1.5-fold of each other in IC50: 2640 nM for the first, 2400 nM for the second.

First: Cn1ncc2cc(C(=O)NCc3cc4cc(Cl)cc(Cn5cnc6c(N)ncnc65)c4[nH]3)ccc21 [Example 362, N-({7-[(6-amino-9H-purin-9-yl)methyl]-5-chloro-1H-indol-2-yl}methyl)-1-methyl-1H-indazole-5-carboxamide]
Second: CCC(N)c1cc2cc(Cl)cc(Cn3cnc4c(N)ncnc43)c2[nH]1 (centres unmarked) [Example 91, 9-{[2-(1-aminopropyl)-5-chloro-1H-indol-7-yl]methyl}-9H-purin-6-amine]
The IC50 of the first is 4.2-fold lower: 636 nM for the first, 2670 nM for the second.

First: COc1cccc(C)c1C(=O)NCc1cc2cc(Cl)cc(Cn3cnc4c(N)ncnc43)c2[nH]1 [Example 299, N-({7-[(6-amino-9H-purin-9-yl)methyl]-5-chloro-1H-indol-2-yl}methyl)-2-methoxy-6-methylbenzamide]
Second: Nc1ncnc2c1ncn2Cc1cc(Cl)cc2cc(CNC(=O)C3CCCCC3)[nH]c12 [Example 128, N-({7-[(6-amino-9H-purin-9-yl)methyl]-5-chloro-1H-indol-2-yl}methyl)cyclohexanecarboxamide]
The IC50 of the first is 1.8-fold lower: 1840 nM for the first, 3340 nM for the second. The first is the more potent here.

`Cc1cccc(-c2cc(Cn3cnc4c(N)ncnc43)c3[nH]c(CN)cc3c2)c1` [Example 31, 9-{[2-(aminomethyl)-5-(3-methylphenyl)-1H-indol-7-yl]methyl}-9H-purin-6-amine] and “4-(aminomethyl)-N-({7-[(6-amino-9H-purin-9-yl)methyl]-5-(4,4-difluorocyclohexyl)-1H-indol-2-yl}methyl)-2-methylbenzamide [Example 301]” are within 1.5-fold of each other in IC50: 901 nM for the first, 750 nM for the second.

Compared with `Nc1ncnc2c1ncn2Cc1cc(Cl)cc2cc(CNC(=O)c3cnoc3)[nH]c12` [Example 141, N-({7-[(6-amino-9H-purin-9-yl)methyl]-5-chloro-1H-indol-2-yl}methyl)-1,2-oxazole-4-carboxamide], `CCC(=O)NCc1cc2cc(Cl)cc(Cn3cnc4c(N)ncnc43)c2[nH]1` [Example 94, N-({7-[(6-amino-9H-purin-9-yl)methyl]-5-chloro-1H-indol-2-yl}methyl)propanamide] is 40-fold higher in IC50: 783 nM for the first, 31100 nM for the second.

`Cc1ccccc1-c1cc(Cn2cnc3c(N)ncnc32)c2[nH]c(CN)cc2c1` [Example 32, 9-{[2-(aminomethyl)-5-(2-methylphenyl)-1H-indol-7-yl]methyl}-9H-purin-6-amine] and `CCC(=O)c1cc2cc(Cl)cc(Cn3cnc4c(N)ncnc43)c2[nH]1` [Example 90, 1-{7-[(6-amino-9H-purin-9-yl)methyl]-5-chloro-1H-indol-2-yl}propan-1-one] are within 1.5-fold of each other in IC50: 3330 nM for the first, 2240 nM for the second.

First: Nc1ncnc2c1ncn2Cc1cc(Cl)cc2cc(CNC(=O)c3ccccc3)[nH]c12 [Example 220, N-({7-[(6-amino-9H-purin-9-yl)methyl]-5-chloro-1H-indol-2-yl}methyl)benzamide]
Second: Cc1ccccc1-c1ccc(Cn2cnc3c(N)ncnc32)c2[nH]c(CN)cc12 [Example 77, 9-{[2-(aminomethyl)-4-(2-methylphenyl)-1H-indol-7-yl]methyl}-9H-purin-6-amine]
The IC50 of the first is 1.5-fold higher: 4050 nM for the first, 2630 nM for the second. The second is the more potent here.

First: Nc1ncnc2c1ncn2Cc1cc(Cl)cc2cc(CNC(=O)c3cnc4[nH]ccc4c3)[nH]c12 [Example 347, N-({7-[(6-amino-9H-purin-9-yl)methyl]-5-chloro-1H-indol-2-yl}methyl)-1H-pyrrolo[2,3-b]pyridine-5-carboxamide]
Second: N#Cc1ccc(C(=O)NCc2cc3cc(C4=CCOCC4)cc(Cn4cnc5c(N)ncnc54)c3[nH]2)c(F)c1 [Example 285, N-({7-[(6-amino-9H-purin-9-yl)methyl]-5-(3,6-dihydro-2H-pyran-4-yl)-1H-indol-2-yl}methyl)-4-cyano-2-fluorobenzamide]
The IC50 of the first is 500-fold higher: 29100 nM for the first, 57.9 nM for the second.

`COc1ccc(C(=O)NCc2cc3cc(Cl)cc(Cn4cnc5c(N)ncnc54)c3[nH]2)cc1` [Example 258, N-({7-[(6-amino-9H-purin-9-yl)methyl]-5-chloro-1H-indol-2-yl}methyl)-4-methoxybenzamide] and `COc1ccccc1C(=O)NCc1cc2cc(Cl)cc(Cn3cnc4c(N)ncnc43)c2[nH]1` [Example 260, N-({7-[(6-amino-9H-purin-9-yl)methyl]-5-chloro-1H-indol-2-yl}methyl)-2-methoxybenzamide] are within 1.5-fold of each other in IC50: 4580 nM for the first, 3550 nM for the second.

Compared with `Cc1noc(C)c1C(=O)NCc1cc2cc(-c3ccc(C#N)cc3)cc(Cn3cnc4c(N)ncnc43)c2[nH]1` [Example 171, N-({7-[(6-amino-9H-purin-9-yl)methyl]-5-(4-cyanophenyl)-1H-indol-2-yl}methyl)-3,5-dimethyl-1,2-oxazole-4-carboxamide], `CC(C)(C)OC(=O)N1CC=C(c2cc(Cn3cnc4c(N)ncnc43)c3[nH]c(CNC(=O)c4ccc(C#N)cc4F)cc3c2)CC1` [Example 289, tert-butyl 4-(7-[(6-amino-9H-purin-9-yl)methyl]-2-{[(4-cyano-2-fluorobenzoyl)amino]methyl}-1H-indol-5-yl)-3,6-dihydropyridine-1(2H)-carboxylate] is 2.8-fold lower in IC50: 173 nM for the first, 61.3 nM for the second. The second is the more potent here.

Compared with `Cc1ccccc1CC(=O)NCc1cc2cc(Cl)cc(Cn3cnc4c(N)ncnc43)c2[nH]1` [Example 294, N-({7-[(6-amino-9H-purin-9-yl)methyl]-5-chloro-1H-indol-2-yl}methyl)-2-(2-methylphenyl)acetamide], `CC(=O)N1CCC(c2cc(Cn3cnc4c(N)ncnc43)c3[nH]c(CN)cc3c2)CC1` [Example 17, 1-(4-{2-(aminomethyl)-7-[(6-amino-9H-purin-9-yl)methyl]-1H-indol-5-yl}piperidin-1-yl)ethanone] is lower in IC50: > 50000 nM for the first, 635 nM for the second. The second is the more potent here.

Going from `Cn1ccnc1-c1ccccc1C(=O)NCc1cc2cc(Cl)cc(Cn3cnc4c(N)ncnc43)c2[nH]1` [Example 327, N-({7-[(6-amino-9H-purin-9-yl)methyl]-5-chloro-1H-indol-2-yl}methyl)-2-(1-methyl-1H-imidazol-2-yl)benzamide] to `CC(=O)N1CC=C(c2cc(Cn3cnc4c(N)ncnc43)c3[nH]c(CN)cc3c2)CC1` [Example 15, 1-[4-{2-(aminomethyl)-7-[(6-amino-9H-purin-9-yl)methyl]-1H-indol-5-yl}-3,6-dihydropyridin-1(2H)-yl]ethanone], the IC50 falls from 5280 nM to 154 nM (34-fold).

In the case of `Nc1ncnc2c1ncn2Cc1cc(Cl)cc2cc(CNC(=O)c3ccccc3F)[nH]c12` [Example 225, N-({7-[(6-amino-9H-purin-9-yl)methyl]-5-chloro-1H-indol-2-yl}methyl)-2-fluorobenzamide], the IC50 is reported as > 50000 nM.
